Measured values published in US9801850B2, “Antibacterial agent” (OSAKA UNIVERSITY, priority 2009, dated 2017).
≈ marks a conversion by molar mass, not a printed value.

Tests used:
[1] = system: Proteus vulgaris ATCC13315; assay: Antibacterial spectrum MIC (Table 7); type: cell-based
How it was run: (§1)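 CLSI broth microdilution in Mueller-Hinton broth: compounds were dissolved in DMSO, diluted with sterile water and tested at final 8–512 μg/ml against about 1×10^5 CFU/ml inoculum. After 18 h at 37 °C, the MIC was read and OD600 turbidity was recorded.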

[2] = system: Pseudomonas aeruginosa ATCC7700; assay: Antibacterial spectrum MIC (Table 7); type: cell-based
How it was run: as §1

[3] = system: P. aeruginosa PAO1; assay: Bactericidal effect, number of remaining viable cells; type: cell-based, Pseudomonas aeruginosa; details: EGCG-C16 50, 100, 200 μg/ml, 0 to 6 hours, FIG. 2(C)
Procedure: (§2) The bactericidal effect of EGCG-C16 against MRSA ATCC43300, E. coli MG1655, and P. aeruginosa PAO1 was measured. Each strain of bacteria was cultured using an MH-broth as a medium.
(§3) The antibacterial agent solution and the bacterial culture solution were mixed together and the resultant mixture was cultured at 37° C. in the same manner as described in the above section (2), except that the final concentration of the EGCG-C16 in the mixture were set to: 6.25 μg/ml or 25 μg/ml for the MRSA; 200 μg/ml for the E. coli; and 50 μg/ml, 100 μg/ml, and 200 μg/ml for the P. aeruginosa. The number of viable cells in the mixture of the antibacterial agent solution and the bacterial culture solution was set to 1×10^5 CFU/ml. Then, after a lapse of a predetermined time from the start of the culture (0 hours, 2 hours, 4 hours, and 6 hours), the culture solution was collected and diluted with physiological saline so as to prepare 10-fold dilution series of solutions. 100 μl of each of the diluted bacterial culture solutions was placed on a petri dish. The diluted bacterial culture solution was hardened by mixing it with 10 ml of a Trypticase-soy Agar (BBL) that was kept at 50° C., and cultured at 37° C. overnight. Then, the number of the formed colonies (CFU/ml) was counted, and the number of remaining viable cells was measured. […]

[4] = system: MRSA ATCC43300; assay: as above; type: cell-based, Staphylococcus aureus; details: EGCG-C16 25 μg/ml, 0 to 6 hours, FIG. 2(A)
Procedure: as §2, §3

[5] = system: E. coli MG1655; assay: as above; type: cell-based, Escherichia coli; details: EGCG-C16 200 μg/ml, 0 to 6 hours, FIG. 2(B)
Procedure: as §2, §3

[6] = system: fungi; assay: Antifungal effect over the fungi of Table 8; type: cell-based; details: respective types of fungi of Table 8
Procedure: Regarding the respective type strains shown in Tables 7 and 8 below, the MIC measurement was performed using the antibacterial agent solutions of Example 2 in the same manner as described in Section (2) of Example 1, except for the following. The antibacterial agent solutions were prepared by dissolving the EGCG derivatives of Example 2 in 100% DMSO and then diluting the resultant mixtures with sterile distilled water. The respective strains were derived from ATCC or NCTC. As Moraxella catarrhalis and Aspergillus fumigatus, clinical isolates thereof without an acquired resistance mechanism were used. For nutrient-rich bacteria, namely, Streptococcus pneumoniae ATCC49619, Streptococcus pyogenes ATCC19615, Streptococcus agalactiae ATCC13813, Moraxella catarrhalis, and Haemophilis influenzae ATCC49766, Strepto Haemo supplement (Eiken Chemical Co., Ltd.) was added to media for culturing them. The MIC measurement with respect to fungi was carried out by a broth microdilution method using a RPMI1640/MOPS (pH 7.0) medium in accordance with CLSI guidelines. About 2×10^3 cells/ml of fungi were inoculated to the medium. After the culture at 35° C. for 24 to 48 hours, the MIC was determined. Also, regarding the antibacterial agent solution of Comparative Example 2, the MIC was measured in the same manner.

Row | Molecule | MIC [1] [µg/mL] | MIC [2] [µg/mL] | antifungal effect [6] | further results
1 | O=C(O[C@@H]1Cc2c(O)cc(O)cc2O[C@@H]1c1cc(O)c(O)c(O)c1)c1cc(O)c(O)c(O)c1 [EGCG, Epigallocatechin gallate, reference compound] | 64 (≈ 140 µM) | 64 (≈ 140 µM) | – | –
2 | EGCG-linolate [EGCG-C18DE] | 32 | – | – | –
3 | EGCG-palmitate [EGCG-C16] | – | – | – | number of remaining viable cells [3]: bacteriostatic action; number of remaining viable cells [4]: not only inhibited the propagation but also reduced the number of viable cells; number of remaining viable cells [5]: bacteriostatic action
4 | EGCG-palmitoleate [EGCG-C16E] | – | – | highest antifungal effect | –
5 | EGCG-stearate [EGCG-C18] | – | 32 | – | –
6 | EGCG-α-linoleate [EGCG-C18TE] | – | – | highest antifungal effect | –
